# From patent publication US9958451B2, “Near-infrared fluorescent dyes with large stokes shifts” (Portland State University, priority 2011, dated 2018)
# Several values for one entry are separate records, joined by “and”; a condition that tells them apart may be missing. Identical values can stand only once. Marks after values point to notes of the source that are not given here.
# What was measured:
# [1] = Fluorescence emission spectra, 15 μM in 90% aqueous, 10% DMSO; assay type: physicochemical; settings: for Red-shifted emission from 3-1 transposition versus known regiochemistry: longest wavelength-emitting species
# Procedure: Compounds 21 and 7 also were characterized by their fluorescence emission spectra. Fluorescence was measured using 15 μM solutions of each compound in a solution that was 90% aqueous, 10% DMSO. For compound 21, the longest wavelength emission observed from the dianions occurred near 680 nm at pH 9. For compound 7 (transposed), the longest wavelength emission observed from the monoanion occurred near 800 nm at pH 9.
# Compounds 22 and 8 also were characterized by their fluorescence emission spectra. Fluorescence was measured using 15 μM solutions of each compound in a solution that was 90% aqueous, 10% DMSO For compound 22, the longest wavelength emission observed from the anion occurred near 690 nm at pH 9. […] Given the greater than 800 nm absorbance peak and the typically large Stokes shifts observed in this class of compounds, it is likely that the emission was beyond the working range of the instrument (>850 nm).
# Compounds 20 and 15a also were characterized by their fluorescence emission spectra. Fluorescence was measured using 15 μM solutions of each compound in a solution that was 90% aqueous, 10% DMSO. For compound 20a, the longest wavelength emission observed from its corresponding anion, compound 20c, occurred near 640 nm in NaOH (pH 12). For compound 15a (transposed), the longest wavelength emission observed from the corresponding anion, compound 15h, occurred near 760 nm in NaOH.
# Compound 15b also was characterized by its fluorescence emission spectrum and compared to C.SNARF-5. Fluorescence was measured using a 15 μM solution of compound 15b in a solution that was 90% aqueous, 10% DMSO. For C.SNARF-5, the longest wavelength emission observed from the anion occurred near 632 nm (Whitaker et al., Anal. Biochem. 1991, 194, 330-344). For compound 15b (transposed), the longest wavelength emission observed from the phenoxide occurred near 770 nm.
# Fluorescence was measured using a 15 μM solution of compound 15d in a solution that was 90% aqueous, 10% DMSO. […] For compound 15d (transposed), the longest wavelength emission observed from the phenoxide occurred near 780 nm (NaOH, pH 12).
# Compounds 20b and 15g also were characterized by their fluorescence emission spectra. Fluorescence was measured using 15 μM solutions of each compound in a solution that was 90% aqueous, 10% DMSO. For compound 20b, the longest wavelength emission observed from the cation occurred near 640 nm at pH 7.4. For compound 15g (transposed), the longest wavelength emission observed from the cation occurred near 770 nm at pH 7.4.
# [2] = Emission in blood (whole porcine blood in buffer)
# Procedure: Compound 15d (Table 1) was diluted to 40 μM in 50% DMSO:50% 25 mM pH 9 phosphate buffer. […] Emission remained stable for at least 1 hr. The absorption profile matches the output of a laser pointer (635-670 nm; max output <5 mW).
# Its absorbance and fluorescence spectra faded over time, but remained visible after about an hour (although with only 10-20% of its original emission intensity). Molecular modeling has shown favorable structural interactions of compounds 5f and 24 with glutathione (FIG. 12—compound 24).
# Spectral behavior of compound 15g (type [c] annulated seminaphtho-rhodamine methyl ester (free amine) with the 3-1 transposition) was investigated to determine its potential for sensing use in whole blood. Solutions of compound 15g in 10% or 90% by volume whole blood (porcine blood in Na-EDTA, Lampire Biological Laboratories) were investigated in a 3×3 mm cell. The fluorophore was first dissolved in 50 mM, pH 7.4 phosphate buffer to ensure complete dissolution, and in the case of 90% whole blood, this stock solution was mixed with whole blood in a 1:9 ratio. In the case of 10% whole blood, 1 part whole blood was added to 9 parts of an appropriately diluted (with deionized water) solution of compound 15g stock. In both cases, the final concentration of compound 15g was 150 μM with a final phosphate buffer concentration of 5 mM. […] Throughout much of the spectrum, the dye produces a greater absorbance than the blood alone. The change in absorbance between the two spectra provides the effective absorbance of the dye. […] The broad absorption and large Stokes shift of this dye allows significant excitation with greater than 50% efficiency at wavelengths beyond that of the major hemoglobin peaks in blood.
# [3] = UV-visible absorbance spectroscopy, 15 μM in 90% aqueous, 10% DMSO; assay type: physicochemical; settings: for Red shift of absorption spectra from 3-1 transposition versus known regiochemistry: depending on the ionization state
# Procedure: Compounds 21 and 7 were characterized by UV-visible spectroscopy (FIG. 15). Absorbance was measured using 15 μM solutions of each compound in a solution that was 90% aqueous, 10% DMSO. The peaks at 600 nm (light dashed line) and 675 nm (light solid line) represent the dianions of compounds 21 and 7, respectively, in NaOH (pH 12). The peaks at 590 nm (heavy dashed line) and 650 nm (heavy solid line) represent a mix of mono- and dianions of compound 21 at pH 7.4 and predominantly monoanions of compound 7 at pH 9, respectively.
# Compounds 22 and 8 were characterized by UV-visible spectroscopy (FIG. 16). Absorbance was measured using 15 μM solutions of each compound in a solution that was 90% aqueous, 10% DMSO. The peaks at 610 nm (light dashed line) and 685 nm (light solid line) represent the anions of compounds 22 and 8, respectively, in NaOH (pH 12). The peaks at 605 nm (heavy dashed line) and 805 nm (heavy solid line) represent the neutral forms of compounds 22 and 8 at pH 7.4, respectively.
# Compounds 20a and 15a were characterized by UV-visible spectroscopy (FIG. 17). Absorbance was measured using 15 μM solutions of each compound in a solution that was 90% aqueous, 10% DMSO. The peaks at 545 nm (light dashed line) and 595 nm (light solid line) represent the respective anions, compounds 20c and 15h, in NaOH (pH 12).
# Compound 15b (free amino) was characterized by UV-visible spectroscopy (FIG. 18), and compared to C.SNARF-5 (literature, SNARF=seminaphthorhodafluor). Absorbance was measured using a 15 μM solution of compound 15b in a solution that was 90% aqueous, 10% DMSO. The peak at 535 nm (heavy line) represents the predominantly phenolic form of 15b at pH 6. The peak at 615 nm (light line) represents the phenoxide of compound 15b at in NaOH (pH12). In comparison, C.SNARF-5 produces a peak at 550 nm (anionic form) and a peak at 485 nm (neutral form) (Whitaker et al., Anal. Biochem. 1991, 194, 330-344).
# Absorbance was measured using 15 μM solutions of compound 15d in a solution that was 90% aqueous, 10% DMSO. The peak at 570 nm (heavy line) represents the predominantly neutral form of 15d at pH 6. The peak at 630 nm (light line) represents the phenoxide of compound 15d in NaOH (pH 12).
# Compounds 20b and 15g were characterized by UV-visible spectroscopy (FIG. 20). Absorbance was measured using 15 μM solutions of each compound in a solution that was 90% aqueous, 10% DMSO. The peaks at 540 nm (dashed line) and 570 nm (solid line) represent the cations of compounds 20b and 15g, respectively, at pH 7.4.
# [4] = Absorbance and fluorescence in methanol; assay type: physicochemical
# Procedure: Absorbance and fluorescence of compounds 22 and 8 also were measured in methanol. […] Thus, placement of the hydroxyl group proximal to the xanthene internal oxygen in compound 8 produced a bathochromic shift of 103 nm in the absorption spectrum. The transposition also imparted a corresponding shift in the excitation spectrum, and a large bathochromic shift of 128 nm in the fluorescence emission. Importantly, compound 8 absorbs and emits in the near-infrared with absorption and emission maxima of 701 nm and 816 nm, respectively.
# Absorbance and fluorescence of compounds 20a and 15a also were measured in methanol. […] Thus, placement of the hydroxyl group proximal to the xanthene internal oxygen in compound 15a produced a bathochromic shift of 15 nm in the absorbance spectrum. The transposition also imparted a corresponding shift in the excitation spectrum, and a large bathochromic shift of 32 nm in the fluorescence emission.
# [5] = Spectral properties of rhodamine bis-boronic acids and precursors in DMSO:buffer; assay type: physicochemical; parameters: Brightness: scale not given here
# Procedure: Characterization: The spectral properties of compounds 50-53 were determined. Absorption and fluorescence spectra of solutions of the rhodamine bis-boronic acids 51 and 53, and their respective precursors 50 and 52, are shown in FIGS. 27A-C (in DMSO:buffer 1:9) and 27D-F (DMSO:buffer 1:1). […] Excitation and emission spectra were normalized to their absorbance at the excitation wavelength, and are proportional to quantum yield.
# [6] = NaOH (pH 12), anionic/phenoxide form, 90% aqueous 10% DMSO
# [7] = pH 6, predominantly neutral/phenolic form
# [8] = DMSO:buffer 1:1, pH 7.4 phosphate buffer 12.5 mM
# [9] = DMSO:buffer 1:9, pH 7.4 phosphate buffer 12.5 mM
smiles,measurement,setting,value
COC(=O)c1ccccc1-c1c2ccc(=N)cc-2oc2c1ccc1cccc(N)c12 [Compound 15g],Enhancement of the Stokes shift by 3-1 transposition,[1],about 100 nm
same,Stokes shift,[1],about 200 nm
same,Red-shifted emission from 3-1 transposition versus known regiochemistry,[1],about 130 nm
same,Longest wavelength emission,"[1]; pH 7.4, cation",~770 nm
same,Emission spectrum maximum,"[2]; 150 μM, 10% and 90% whole blood, excitation at 670 nm",about 750 nm
same,Red shift of absorption spectra from 3-1 transposition versus known regiochemistry,[3]; 90% aqueous 10% DMSO,about 30 nm
same,Absorbance peak,"[3]; pH 7.4, 90% aqueous 10% DMSO",570 nm
COC(=O)c1ccccc1-c1c2ccc(=N)cc-2oc2c1ccc1cc(N)ccc12 [Compound 20b],Stokes shift,[1],about 100 nm
same,Longest wavelength emission,"[1]; pH 7.4, cation",~640 nm
same,Absorbance peak,"[3]; pH 7.4, 90% aqueous 10% DMSO",540 nm
Cc1ccc(C)c(-c2c3ccc4cccc(O)c4c3oc3c2ccc2cccc(=O)c23)c1 [Compound 4a],Stability of absorption in the blood solution,[2]; blood solution,remained stable over extended periods of time
"COC(=O)c1ccccc1-c1c2ccc3cc(O)ccc3c2oc2c1ccc1cc(=O)ccc12 [Compound 22, naphthofluorescein methyl ester]",Stokes shift,[1],about 80 nm
same,Longest wavelength emission,[1]; pH 9,~690 nm
same,Absorbance peak,[3]; [6],610 nm
same,Absorbance peak,"[3]; pH 7.4, 90% aqueous 10% DMSO",605 nm
same,Absorption maximum,[4],598 nm
same,Emission maximum,[4],688 nm
COC(=O)c1ccccc1-c1c2ccc(=O)cc-2oc2c1ccc1cccc(O)c12 [Compound 15a],Red shift of absorption spectra from 3-1 transposition versus known regiochemistry,[3]; 90% aqueous 10% DMSO,10-55 nm
same,Absorbance peak,[3]; [7],525 nm
same,Absorption maximum,[4],501 nm and 536 nm
same,Bathochromic shift in the absorption spectrum versus known regiochemistry,[4],15 nm
same,Bathochromic shift in the fluorescence emission versus known regiochemistry,[4],32 nm
same,Emission maximum,[4],582 nm
"O=C1OC2(c3ccccc31)c1ccc3cc(O)ccc3c1Oc1c2ccc2cc(O)ccc12 [Compound 21, Naphthofluorescein, reference compound]",Stokes shift,[1],about 80 nm
same,Longest wavelength emission,[1]; pH 9,~680 nm
same,Absorbance peak,[3]; [6],600 nm
same,Absorbance peak,"[3]; pH 7.4, 90% aqueous 10% DMSO",590 nm
COC(=O)c1ccccc1-c1c2ccc(=O)cc-2oc2c1ccc1cc(O)ccc12 [Compound 20a],Absorbance peak,[3]; [7],515 nm
same,Absorption maximum,[4],487 nm and 521 nm
same,Emission maximum,[4],550 nm
COC(=O)c1ccccc1-c1c2ccc(=N)cc-2oc2c1ccc1cccc(O)c12 [Compound 15b],Enhancement of the Stokes shift by 3-1 transposition,[1],about 73 nm
same,Stokes shift,[1],about 155 nm
same,Red-shifted emission from 3-1 transposition versus known regiochemistry,[1],about 138 nm
same,Longest wavelength emission,[1]; pH not stated,~770 nm
same,Red shift of absorption spectra from 3-1 transposition versus known regiochemistry,[3]; 90% aqueous 10% DMSO,50-65 nm
same,Absorbance peak,[3]; [6],615 nm
same,Absorbance peak,[3]; [7],535 nm
COC(=O)c1ccccc1-c1c2ccc(=O)cc-2oc2c1ccc1cc(O)ccc12 [Compound 20c],Stokes shift,[1],about 95 nm
same,Longest wavelength emission,"[1]; NaOH (pH 12), anion/phenoxide",~640 nm
same,Absorbance peak,[3]; [6],545 nm
"N=c1ccc2c(ccc3c(-c4ccccc4C(=O)O)c4ccc5cc(N)ccc5c4oc32)c1 [Compound 52, naphthorhodamine]",Quantum yield,[5]; DMSO buffer 1:9,10%
same,Brightness,[5]; DMSO:buffer 1:1,121^g
same,Em,[5]; DMSO:buffer 1:1,676 nm
same,Ex,[5]; DMSO:buffer 1:1,596 nm
same,Q.Y.,[5]; DMSO:buffer 1:1,0.11
same,ε,[5]; DMSO:buffer 1:1,1081 M⁻¹ cm⁻¹
same,Abs,[5]; [8],602 nm
same,Brightness,[5]; DMSO:buffer 1:9,1144^d
same,Em,[5]; DMSO:buffer 1:9,668 nm
same,Ex,[5]; DMSO:buffer 1:9,584 nm
same,Q.Y.,[5]; DMSO:buffer 1:9,0.10
same,ε,[5]; DMSO:buffer 1:9,11994 M⁻¹ cm⁻¹
same,Abs,[5]; [9],578 nm
"N=c1ccc2c(-c3ccccc3C(=O)O)c3ccc4cc(N)ccc4c3oc-2c1 [Compound 50, seminaphthorhodamine]",Quantum yield,[5]; DMSO buffer 1:9,19%
same,Red shift of maximum absorption compared to rhodamine 110,[5]; DMSO buffer 1:9,40 nm
same,Red shift of maximum emission compared to rhodamine 110,[5]; DMSO buffer 1:9,~100 nm
same,Brightness,[5]; DMSO:buffer 1:1,6298
same,Em,[5]; DMSO:buffer 1:1,630 nm
same,Ex,[5]; DMSO:buffer 1:1,542 nm
same,Q.Y.,[5]; DMSO:buffer 1:1,0.30
same,ε,[5]; DMSO:buffer 1:1,21064 M⁻¹ cm⁻¹
same,Abs,[5]; [8],542 nm
same,Brightness,[5]; DMSO:buffer 1:9,8083
same,Em,[5]; DMSO:buffer 1:9,628 nm
same,Ex,[5]; DMSO:buffer 1:9,534 nm
same,Q.Y.,[5]; DMSO:buffer 1:9,0.19
same,ε,[5]; DMSO:buffer 1:9,42701 M⁻¹ cm⁻¹
same,Abs,[5]; [9],535 nm
